Holding throughout (type): cell-based
The subject of assay [1] is A549 human lung carcinoma cells. Briefly: MTS cytotoxicity counter-screen of reconfirmed hits. On the procedure:
Cytotoxicity of the reconfirmed hits was determined by using the CellTiter 96® AQueous One Solution Cell Proliferation Assay (Promega, Madison, WI) on A549 human lung carcinoma cells. A549 cells were seeded at a concentration of 1.6 × 10^4 cells/mL in 96-well tissue culture plates (Corning, NY, USA), in the presence of serially diluted active hits against B. mandrillaris, N. fowleri, or A. castellanii. Positive control wells contained cells and media; negative control wells contained 0.1% DMSO. Cells were grown in F12K medium supplemented with 10% FBS and 1% gentamycin (all supplied from Fisher Scientific, Atlanta, GA, USA). The inhibitor concentration started at 10 µM and was diluted in doubling dilutions to assess cytotoxicity in comparison to the respective free-living amoeba. Total volume of each well was 100 µL and plates were incubated at 37 °C, 5% CO2 for 72 h. Next, 4 h before the time-point, 20 µL of MTS (Promega, Madison, WI, USA) was added to each well. Inhibition of A549 growth was assessed at the 72 h time-point measuring the optical density (OD) values at 490 nm using a SpectraMax I3X plate reader (Molecular Devices, Sunnyvale, CA, USA). Curve fitting using non-linear regression was carried out using the average of replicates and the Levenberg–Marquardt algorithm, using DMSO as the normalization control, as defined in CDD Vault (Burlingame, CA, USA).

Assay [2] concerns Acanthamoeba castellanii trophozoites. The assay can be described thus: CellTiter-Glo 2.0 trophocidal assay, A. castellanii. To be noted: for IC50: CTG method, 72 h, duplicate twofold serial dilutions from 10 µM, mean ± SD; for Selectivity Index (A549 IC50/A. castellanii IC50): SI = (IC50 A549)/(IC50 Amoeba); for potency against A. castellanii, in words: dose-response, CTG. On the procedure: This isolate was also purchased from ATCC. Trophozoites were routinely grown axenically at 27 °C in Protease Peptone-Glucose Media (PG) in non-vented 75 cm^2 tissue culture flasks (Olympus, El Cajon, CA, USA), until the cells were 80–90% confluent. For sub-culturing, cells were mechanically harvested to detach the cells from the culture flasks. The cells were collected by centrifugation at 4000 rpm at 4 °C.
The trophocidal activity of compounds was assessed using the CellTiter-Glo 2.0 luminescent viability assay (Promega, Madison, WI, USA), as previously described. Trophozoites were routinely cultured as described above and only logarithmic trophozoites were used. […] Initially all compounds were assessed in a single-point drug screen at 10 and 1 μM, as previously described. […] We used this process to reduce the number of potential false positives. Drugs were cherry-picked, dissolved in the media specific to each parasite, and assessed in twofold serial dilutions from the highest concentration of 10 μM. All assays were incubated at each of the parasites’ representative growth temperatures, described above, for 72 h. At the 72 h time point, 25 μL of CellTiter-Glo 2.0 reagent was added to all wells of the 96-well plates using the Biomek NX^P automated workstation. The plates were protected from light and contents were mixed using an orbital shaker at 300 rpm at room temperature for 2 min to induce cell lysis. After shaking, the plates were equilibrated at room temperature for 10 min to stabilize the luminescent signal. The adenosine triphosphate (ATP) luminescent signal (relative light units; RLUs) was measured at 490 nm with a SpectraMax I3X plate reader (Molecular Devices, Sunnyvale, CA, USA). Drug inhibitory concentration (IC50) curves were generated using total ATP RLUs, where controls were calculated as the average of replicates using the Levenberg–Marquardt algorithm, using DMSO as the normalization control, as defined in Collaborative Drug Discovery Inc. (CDD) Vault (Burlingame, CA, USA). Values reported are from a minimum of two biological replicates with standard deviations.
(In general: Cellular ATP, detected with luciferase, serves as a proxy for viable cell number.)

The subject of assay [3] is Balamuthia mandrillaris trophozoites. The assay can be described thus: CellTiter-Glo 2.0 trophocidal assay, B. mandrillaris. To be noted: for IC50: 72 h, CTG method, duplicate twofold serial dilutions from 10 µM, mean ± SD; for Selectivity Index (A549 IC50/B. mandrillaris IC50): SI = (IC50 A549)/(IC50 Amoeba); for potency against B. mandrillaris, in words: dose-response, CTG. The procedure: Pathogenic Balamuthia mandrillaris (CDC:[…]; American Type Culture Collection (ATCC) 50209), a GAE isolate, isolated from a pregnant baboon at the San Diego Zoo in 1986 was donated by Luis Fernando […] University, Mexico [43]. Trophozoites were routinely grown axenically in Balamuthia mandrillaris Itson (BMI) media at 37 °C, 5% CO2 in vented 75 cm^2 tissue culture flasks (Olympus, El Cajon, CA, USA), until the cells were 80-90% confluent. For sub-culturing, 0.25% Trypsin-EDTA (Gibco, Gaithersburg, MD, USA) cell detachment reagent was used to detach the cells from the culture flasks. The cells were collected by centrifugation at 4000 rpm at 4 °C. Complete BMI media is produced by the addition of 10% fetal bovine serum (FBS) and 125 μg of penicillin/streptomycin antibiotics. The trophocidal activity of compounds was assessed using the CellTiter-Glo 2.0 luminescent viability assay (Promega, Madison, WI, USA), as previously described. Trophozoites were routinely cultured as described above and only logarithmic trophozoites were used. […] Inhibitors were assessed for percent inhibition using the criteria of ≤33% growth inhibition (no inhibition), 33-67% growth inhibition (moderate inhibition), and ≥67% growth inhibition (strong inhibition). […] We used this process to reduce the number of potential false positives. […] All assays were incubated at each of the parasites' representative growth temperatures, described above, for 72 h. At the 72 h time point, 25 μL of CellTiter-Glo 2.0 reagent was added to all wells of the 96-well plates using the Biomek NX^P automated workstation. The plates were protected from light and contents were mixed using an orbital shaker at 300 rpm at room temperature for 2 min to induce cell lysis. After shaking, the plates were equilibrated at room temperature for 10 min to stabilize the luminescent signal. The adenosine triphosphate (ATP) luminescent signal (relative light units; RLUs) was measured at 490 nm with a SpectraMax I3X plate reader (Molecular Devices, Sunnyvale, CA, USA). Drug inhibitory concentration (IC50) curves were generated using total ATP RLUs, where controls were calculated as the average of replicates using the Levenberg-Marquardt algorithm, using DMSO as the normalization control, as defined in Collaborative Drug Discovery Inc. (CDD) Vault (Burlingame, CA, USA). Values reported are from a minimum of two biological replicates with standard deviations.

[4] abbreviates: Homo sapiens, A549, MTS assay, 72 h, doubling dilutions from 10 µM, read-out: A549 Mean IC50.
Where [5] appears, read: MTS assay, 72 h, doubling dilutions from 10 µM, read-out: A549 Mean IC50.

“And” between values parts separate entries of the source, which are not always exact repeats. Identical values can stand only once. Like-named read-outs stand apart in the source and are kept apart here.

The results in this text go back to PMC7344389, “Discovery of Anti-Amoebic Inhibitors from Screening the MMV Pandemic Response Box on Balamuthia mandrillaris, Naegleria fowleri, and Acanthamoeba castellanii” (Pathogens, 2020).

The term IC50 denotes the concentration needed to halve the response being measured.

In the case of `CCCCC(CC)CNC(=N)NC(=N)NCCCCCCNC(=N)NC(=N)NCC(CC)CCCC` (stereo not shown) [Alexidine], the concentration for half-maximal inhibition (IC50) in assay [1] (setting [4]) was 2.1 µM; in assay [2], 2.4 ± 1.56 µM; in assay [2] (listed as alexidine), not above 10 µM. Besides, the “Selectivity Index (A549 IC50/A. castellanii IC50)” value in assay [2] came to 0.88.

As for `CCC(C)(C)c1ccc(CC(C)CN2C[C@@H](C)O[C@@H](C)C2)cc1` (stereo partly shown) [Amorolfine], the IC50 in assay [1] (setting [4]) was more than 10 µM; in assay [2], 1.63 ± 1.62 µM; in assay [2] (listed as amorolfine), not above 10 µM. The “Selectivity Index (A549 IC50/A. castellanii IC50)” value in assay [2] was not below 6.13.

Take `Clc1ccc(Cn2c(CN3CCCC3)nc3ccccc32)cc1` [Clemizole]: the IC50 in assay [1] (setting [4]) was more than 10 µM; in assay [3] (Balamuthia mandrillaris), not above 10 µM; in assay [3], 8.95 ± 1.48 µM. For the same compound, the “Selectivity Index (A549 IC50/B. mandrillaris IC50)” value in assay [3] is recorded as not below 1.12.

For `O=[N+]([O-])/C(Br)=C/c1ccc(Br)o1` [Furvina], the IC50 in assay [1] (setting [5]) is more than 10 µM; in assay [2], 4.2 ± 0.85 µM; in assay [2] (listed as furvina), not above 10 µM.

In the case of `CNCC(=O)OCc1cccnc1N(C)C(=O)OC(C)[n+]1cnn(C[C@](O)(c2cc(F)ccc2F)[C@@H](C)c2nc(-c3ccc(C#N)cc3)cs2)c1` (stereo partly shown) [Isavuconazonium], the IC50 in assay [1] (setting [4]) was more than 10 µM; in assay [2] (Acanthamoeba castellanii), 0.09 ± 0.02 µM. Moreover, the “Selectivity Index (A549 IC50/A. castellanii IC50)” value in assay [2] was not below 105; in assay [2] (listed as isavuconazonium) it was not below 10. For the same compound, the “potency against A. castellanii, in words” value in assay [2] is listed as “nanomolar potency”.

Turning to `CC(=O)N1CCN(c2ccc(OCC3COC(Cn4ccnc4)(c4ccc(Cl)cc4Cl)O3)cc2)CC1` (stereo not shown) [Ketoconazole], the IC50 in assay [1] (setting [4]) is more than 10 µM; in assay [2], 1.24 ± 0.8 µM; in assay [2] (listed as ketoconazole) it was not above 10 µM.

In the case of `CCc1nc(N)nc(N)c1C#CC(C)c1cc(OC)cc(-c2ccncc2)c1` (stereo not shown) [MMV1580844], the IC50 in assay [1] (setting [5]) is more than 10 µM. Besides, in assay [3], the concentration for half-maximal inhibition (IC50) stood at 0.53 ± 0.11 µM and the “potency against B. mandrillaris, in words” value is on record as “nanomolar potency”.

For the compound `C(=C\c1nc2ccccc2[nH]1)/c1ccc2c(c1)OCO2` [MMV1582495], the IC50 in assay [1] (setting [5]) was more than 10 µM. In assay [3], the midpoint of inhibition, the IC50, lay at 0.54 ± 0.04 µM and the “potency against B. mandrillaris, in words” value is “nanomolar potency”.

In the case of `N#Cc1c(F)c(Cl)c(NCc2ccccc2)c(C#N)c1F` [MMV1582496], the 50% inhibitory concentration (IC50) in assay [1] (setting [5]) is more than 10 µM. Further, in assay [2], the IC50 came to 0.61 ± 0.35 µM and the “potency against A. castellanii, in words” value is “nanomolar potency”.

Regarding `Cc1ccc(N2CCC(CCOc3ccc(S(C)(=O)=O)cc3)CC2)nn1` [MMV1634394], the half-inhibitory concentration (IC50) is more than 10 µM in assay [1] (setting [5]); ≤ 10 µM and 8.05 µM in assay [3].

`Cc1nc2ccc(Oc3ccccc3)cc2c2c1CCN2CCc1ccccc1` [MMV1634399]: the 50% inhibitory concentration (IC50) in assay [1] (setting [5]) was more than 10 µM; in assay [3], 0.73 ± 0.28 µM. In addition, the “potency against B. mandrillaris, in words” value in assay [3] is recorded as “nanomolar potency”.

With `O=C(/C=C\n1cnc(-c2cc(C(F)(F)F)cc(C(F)(F)F)c2)n1)NNc1cnccn1` [Selinexor], the IC50 in assay [1] (setting [4]) was more than 10 µM; in assay [3] (Balamuthia mandrillaris), not above 10 µM; in assay [3], 9.2 ± 1.13 µM. The “Selectivity Index (A549 IC50/B. mandrillaris IC50)” value in assay [3] was not below 1.09.

Consider `O=C(O)C(F)(F)F` [Trifluoroacetic acid], for which the IC50 in assay [1] (Homo sapiens, A549, 72 h, read-out: A549 Mean IC50 (µM)) was more than 10 µM; in assay [2] it was 1.97 ± 1 µM; in assay [2] (listed as trifluoroacetic acid), not above 10 µM. For the same compound, the “Selectivity Index (A549 IC50/A. castellanii IC50)” value in assay [2] is on record as not below 5.10.

Regarding `CN1CCN(Cc2ccc(-c3cnc4[nH]cc(-c5ccc6[nH]ccc6c5)c4c3)cc2)CC1` [URMC-099-C], the IC50 in assay [1] (setting [4]) was 4.2 µM; in assay [3] (Balamuthia mandrillaris) it was not above 10 µM; in assay [3], 5.35 ± 1.63 µM. Moreover, in assay [3], the “Selectivity Index (A549 IC50/B. mandrillaris IC50)” value worked out at 0.79.
